The values that follow are results of earlier work, collected in patent publication US20070160542A1, “Methods and systems for the delivery of corticosteroids having an enhanced pharmacokinetic profile” (Verus Pharmaceuticals, Inc., priority 2005, published 2007).

In the case of `CCCC1O[C@@H]2C[C@H]3[C@@H]4CCC5=CC(=O)C=C[C@]5(C)[C@H]4[C@@H](O)C[C@]3(C)[C@]2(C(=O)CO)O1` (stereo partly drawn) [budesonide, (R,S)-11β,16α,17,21-tetrahydroxypregna-1,4-diene-3,20-dione cyclic 16,17-acetal with butyraldehyde], the solubility in alcohols entry is listed as “readily soluble” and the solubility in water entry is recorded as “virtually insoluble”.
